Results from US10959986B2, “Inhibitors of indoleamine 2,3-dioxygenase and methods of their use” (BRISTOL-MYERS SQUIBB COMPANY, priority 2018, dated 2021).
Where two headings read alike, the source gives them in different places.

Legend:
human IDO1 = molecular target: T1, human IDO1 (Homo sapiens, UniProt P14902); assay: HEK293 cell-based indoleamine 2,3-dioxygenase (IDO) assay; settings: HEK293 cells stably expressing human IDO1, 20 hours incubation; read-out: IDO1 HEK Human IC50
T1 construct: expressed in transfected cells
Protocol: Assessment of Inhibitor Activity in HEK293 Cell-Based Indoleamine 2,3-Dioxygenase (IDO) Assay.
HEK293 cells were transfected with a pCDNA-based mammalian expression vector harboring human IDO1 cDNA (NM 002164.2) by electroporation. They were cultured in medium (DMEM with 10% FBS) containing 1 mg/ml G418 for two weeks. Clones of HEK293 cells that stably expressed human IDO1 protein were selected and expanded for IDO inhibition assay.
The human IDO1/HEK293 cells were seeded at 10,000 cells per 50 μL per well with RPMI/phenol red free media contains 10% FBS in a 384-well black wall clear bottom tissue culture plate (Matrix Technologies LLC) 100 nL of certain concentration of compound was then added to each well using ECHO liquid handling systems. The cells were incubated for 20 hours in 37° C. incubator with 5% CO2.
The compound treatments were stopped by adding trichloroacetic acid (Sigma-Aldrich) to a final concentration at 0.2%. The cell plate was further incubated at 50° C. for 30 minute. The equal volume supernatant (20 μL) and 0.2% (w/v) Ehrlich reagent (4-dimethylaminobenzaldehyde, Sigma-Aldrich) in glacial acetic acid were mixed in a new clear bottom 384-well plate. This plate was then incubated at room temperature for 30 minute. The absorbance at 490 nm was measured on Envision plate reader.
Compound IC50 values were calculated using the counts of 500 nM of a reference standard treatment as one hundred percent inhibition, and counts of no compound but DMSO treatment as zero percent inhibition.

[1] = molecular target: T2, indoleamine 2,3-dioxygenase (IDO) (Homo sapiens, UniProt P14902); assay: HeLa cell-based indoleamine 2,3-dioxygenase (IDO) assay; settings: HeLa cells with IFNγ 25 ng/mL, 48 hour incubation, kynurenine production
T2 construct: media containing IFNγ (#285-IF/CF, R&D Systems) at a final concentration of 25 ng/mL; endogenous in cells; host or cells: HeLa (ATCC CCL-2), induced with IFN-gamma
Protocol: Assessment of Inhibitor Activity in HeLa Cell-Based Indoleamine 2,3-Dioxygenase (IDO) Assay.
HeLa (ATCCR CCL-2) cells were obtained from the ATCC® and cultured in Dulbecco's Modified Eagle Medium supplemented with 4.5 g/L glucose, […] L-glutamine and […] (#10-013-CV, Corning), 2 mM L-alanyl-L-glutamine dipeptide (#35050-061, Gibco), 100U/mL penicillin, 100 µg/mL streptomycin (#SV30010, HyClone) and 10% fetal bovine serum (#SH30071.03 HyClone). Cells were maintained in a humidified incubator at 37° C. in 5% CO2.
IDO activity was assessed as a function of kynurenine production as follows: HeLa cells were seeded in a 96-well culture plate at a density of 5,000 cells/well and allowed to equilibrate overnight. After 24 hours, the media was aspirated and replaced with media containing IFNγ (#285-IF/CF, R&D Systems) at a final concentration of 25 ng/mL. A serial dilution of each test compound was added to the cells in a total volume of 200 μL of culture medium. After a further 48 hour incubation, 170 μL of supernatant was transferred from each well to a fresh 96-well plate. 12.1 μL of 6. IN trichloroacetic acid (#T0699, Sigma-Aldrich) was added to each well and mixed, followed by incubation at 65° C. for 20 minutes to hydrolyze N-formylkynurenine, the product of indoleamine 2,3-dioxygenase, to kynurenine. The reaction mixture was then centrifuged for 10 mins at 500×g to sediment the precipitate. 100 μL of the supernatant was transferred from each well to a fresh 96-well plate. 100 μl of 2% (w/v) p-dimethylaminobenzaldehyde (#15647-7, Sigma-Aldrich) in acetic acid (#A6283, Sigma-Aldrich) was added to each well mixed and incubated at room temperature for 20 mins. Kynurenine concentrations were determined by measuring absorbance at 480 nm and calibrating against an L-kynurenine (#K8625, Sigma-Aldrich) standard curve using a SPECTRAMAX® M2e microplate reader (Molecular Devices). The percentage activity at each inhibitor concentration was determined and IC50 values assessed using nonlinear regression.

[2] = read-out: IDO Hela IC50 potency class (A < 50, B < 250, C < 2000)

T2 sequence (P14902 whole entry): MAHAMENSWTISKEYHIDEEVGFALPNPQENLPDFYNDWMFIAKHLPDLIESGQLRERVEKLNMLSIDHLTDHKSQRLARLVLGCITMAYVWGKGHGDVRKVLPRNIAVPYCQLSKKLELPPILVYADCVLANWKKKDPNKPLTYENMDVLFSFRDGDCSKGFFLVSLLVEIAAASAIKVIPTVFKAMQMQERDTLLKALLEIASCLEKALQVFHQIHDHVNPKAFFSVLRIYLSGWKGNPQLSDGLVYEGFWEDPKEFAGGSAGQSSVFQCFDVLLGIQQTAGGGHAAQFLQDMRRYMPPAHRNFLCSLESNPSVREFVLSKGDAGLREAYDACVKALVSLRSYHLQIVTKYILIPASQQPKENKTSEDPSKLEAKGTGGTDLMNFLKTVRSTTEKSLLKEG
T1 sequence (P14902 whole entry): as above

Compound	IC50 (human IDO1) [nM]	IC50 [1, 2] [nM]	IC50 ([1]; read-out: IDO Hela IC50) [nM]
CC[C@@H](CC(=O)O)c1ccc([C@H]2CC[C@@H](c3ccccc3)CC2)c(NC(=O)Nc2ccc(C)cc2)c1 (single isomer, unassigned) [Example 1-2, 3-(4-(4-phenylcyclohexyl)-3-(3-(p-tolyl)ureido)phenyl)pentanoic acid]	1600		
CC[C@@H](CC(=O)O)c1ccc([C@H]2CC[C@@H](c3ccccc3)CC2)c(NC(=O)Nc2ccc(C)cc2)c1 (single isomer, unassigned) [Example 1-1, 3-(4-(4-phenylcyclohexyl)-3-(3-(p-tolyl)ureido)phenyl)pentanoic acid]	499		
CC[C@@H](CC(=O)O)c1ccc([C@H]2CC[C@@H](c3ccccc3)CC2)c(NC(=O)Nc2ccc(C)cc2)c1 (single isomer, unassigned) [Example 2-3, 3-(4-(4-phenylcyclohexyl)-3-(3-(p-tolyl)ureido)phenyl)pentanoic acid]	1	< 50	
CC[C@@H](CC(=O)O)c1ccc([C@H]2CC[C@@H](c3ccccc3)CC2)c(NC(=O)Nc2ccc(C)cc2)c1 (single isomer, unassigned) [Example 1-4, 3-(4-(4-phenylcyclohexyl)-3-(3-(p-tolyl)ureido)phenyl)pentanoic acid]	3	< 50	
CCc1ncc(Nc2cc([C@H](CC)CC(=O)O)ccc2-c2sc(C)nc2C)cn1 (single isomer, unassigned) [Example 57]			110
CC[C@H](CC(=O)O)c1ccc(C2CCN(C(=O)OC(C)(C)C)CC2)c(Nc2ccc(C#N)cc2)c1 (single isomer, unassigned) [Example 30]		< 50	
COC[C@@H](CC(=O)O)c1ccc(-c2ccc3c(c2)OCO3)c(Nc2ccc(C#N)cc2)c1 (single isomer, unassigned) [Example 34]			320
CCOc1ncc(Nc2cc([C@H](CC)CC(=O)O)ccc2-c2ccc3c(c2)OC(F)(F)O3)cn1 (single isomer, unassigned) [Example 83]			170
CCOc1ncc(Nc2cc([C@@H](CC)CC(=O)O)ccc2C2CCN(C(=O)OC(C)(C)C)CC2)cn1 (single isomer, unassigned) [Example 26]			20
CC[C@H](CC(=O)O)c1ccc(-c2cnn(C)c2)c(Nc2ccc(F)cc2)c1 (single isomer, unassigned) [Example 3]			40
(S)-3-(2-((4-cyanophenyl)amino)- -methyl- [1,1′-biphenyl]-4-yl)-4-methoxybutanoic acid [Example 37]		250 to 2000	≥ 1000
CC[C@H](CC(=O)O)c1ccc(-c2nc(-c3ccccc3)cs2)c(Nc2ccc(Cl)cc2)c1 (single isomer, unassigned) [Example 20]			30

The next lines start with the values.

IC50 (human IDO1) [nM]	IC50 [1, 2] [nM]	IC50 ([1]; read-out: IDO Hela IC50) [nM]	Compound
	250 to 2000	≥ 1000	CCOc1ncc(Nc2cc([C@H](CC)CC(=O)O)ccc2-c2ccc3nonc3c2)cn1 (single isomer, unassigned) [Example 78]
	250 to 2000	≥ 1000	CCOc1ncc(Nc2cc([C@H](CC)CC(=O)O)ccc2-c2ccncc2F)cn1 (single isomer, unassigned) [Example 52]
		90	CCOc1ncc(Nc2cc([C@H](CC)CC(=O)O)ccc2-c2c(C)noc2C)cn1 (single isomer, unassigned) [Example 54]
		890	CCOc1ncc(Nc2cc([C@H](CC)CC(=O)O)ccc2-c2ccc(C#N)cn2)cn1 (single isomer, unassigned) [Example 62]
		150	CCOc1ncc(Nc2cc([C@H](CC)CC(=O)O)ccc2-c2ccc3c(cnn3C)c2)cn1 (single isomer, unassigned) [Example 51]
		760	CCOc1ncc(Nc2cc([C@H](CC)CC(=O)O)ccc2-c2ccnc(N3CCOCC3)n2)cn1 (single isomer, unassigned) [Example 84]
